From patent EP0356739B1, “Recombinant DNA, microorganism carrying said recombinant DNA, and process for producing L-amino acids by the use of said microorganism” (AJINOMOTO CO., INC., priority 1988, dated 1990)

How the values were obtained:
[1] = test system: acetohydroxy acid synthase; assay: Acetohydroxy acid synthase activity of crude enzyme solution from wild-type strain ATCC13869, with amino acid added (feedback inhibition); type: biochemical, Brevibacterium lactofermentum; settings: Amino acid added (5mM), 65mM phosphate buffer, 100mM sodium pyruvate
Excerpt: (§1) In order to confirm that the DNA donor strain or transformant imparted with resistance to antagonist contains a mutant-type gene that codes for acetohydroxy acid synthase with reduced feedback inhibition by L-valine, L-leucine or L-isoleucine, it is necessary to prepare an enzyme solution from that antagonist-resistant strain or transformant, to allow this solution to act upon pyruvic acid ( as substrate ) in the presence of L-valine, L-leucine or L-isoleucine, and to measure the amount of 2-acetolactic acid formed.
(§2) A strain being tested was cultivated in production medium (A) for about 18 hours, the grown cells were ultrasonicated, and the resulting solution was centrifuged at 15,000 r.p.m. for 20 minutes.
(§3) The supernatant thus obtained was used as a crude enzyme solution, which was added to a solution containing 65mM phosphate buffer and 100mM sodium pyruvate to effect enzymic reaction. Acetolactic acid thus formed was converted to acetoin, and the color developed by addition of 2-naphthol was measured at 530 nm.

[2] = test system: acetohydroxy acid synthase; assay: Acetohydroxy acid synthase activity of crude enzyme solution from transformant AJ12403/pAJ220V3, with amino acid added (feedback inhibition); type: biochemical, Brevibacterium lactofermentum; settings: Amino acid added (5mM); crude enzyme of strain AJ12403/pAJ220V3; 65mM phosphate buffer, 100mM sodium pyruvate
Excerpt: as §1, §2, §3

Row | SMILES | relative activity values (%) when the activity in the absence of amino acid is taken as 100 [1] [%] | relative activity values (%) when the activity in the absence of amino acid is taken as 100 [2] [%]
1 | CC[C@H](C)[C@H](N)C(=O)O [L-Ile, L-isoleucine] | 60 | 101
2 | CC(C)C[C@H](N)C(=O)O [L-Leu, L-leucine] | 67 | 119
3 | CC(C)[C@H](N)C(=O)O [L-Val, L-valine] | 60 | 108
